Patent US20110178105A1, “CLINICAL BENEFITS OF EICOSAPENTAENOIC ACID IN HUMANS” (E.I. DU PONT DE NEMOURS AND COMPANY, priority 2010, published 2011)
Values joined by “and” are separate entries in the source; they are usually repeats but may differ in a detail not shown here. Equal values may be shown once. “Also recorded” adds a separate entry of the source.

How the values were obtained:
Format in all cases: in vivo, human
[1] = Clinical study: post-prandial lipids 4 hours after fat-rich test meal; settings: 6 weeks
Procedure: At visit 2, subjects were again asked to fast for 12 hours, and information about subject characteristics including all vital signs, recent illness or hospitalization, medication and supplement use, and diet information was again obtained. Subjects then had blood drawn for a metabolic profile and complete blood counts. […] Subjects (30 in each group) were then randomized equally for 6 weeks to one of four treatment arms: 1) olive oil placebo; 2) 600 mg of EPA/day; 3) 1800 mg of EPA/day; and, 4) 600 mg of DHA/day. At one week and three weeks after beginning the supplements, all study subjects were contacted by telephone and asked about any adverse effects and about their compliance, and the information on their calendars with regard to capsule use and fish intake. They were also asked about whether they had experienced any fishy aftertaste or odor, and if so, how frequent were these episodes, and how unpleasant were they? The entire process as listed above was repeated after study subjects were on the study capsules for 6 weeks at the time of the final visit. Compliance and adverse events were assessed by telephone at weeks 1 and 3 by telephone and at week 6 by questionnaire and capsule count. Over 42 days, subjects were expected to have consumed a total of 252 capsules. Compliance was calculated as a percentage of consumed capsule count/expected capsule count based on the number of days the subject was in the study. All subjects were asked to stay on their capsules until they come in for their final visit. Compliance in all participants who completed the study was based on capsule count was in excess of 85%, mean 96%.
(§1) On the samples obtained 4 hours after the fat-rich meal, total cholesterol, triglycerides, direct HDL cholesterol, and direct LDL cholesterol were measured. Direct LDL cholesterol and small dense LDL cholesterol levels were measured using kits obtained from Denka-Seiken Corporation, (Tokyo, Japan), as previously described (Okada, M. et al., supra; Hirano, T. et al., supra; Ai, M. et al., supra). Remnant lipoprotein cholesterol was measured using kits obtained from Polymedco (Cortland Manor, N.Y.) and manufactured by Otsuka Corporation (Tokyo, Japan) as previously described (McNamara, J. R. et al., Atherosclerosis, supra). All lipid assays are standardized through the Lipid Research Clinics standardization program of the Centers for Disease Control (Atlanta, Ga.). All assays had between and within run coefficients of variation of <5%. Serum fatty acid profiles were analyzed by Nutrasource Diagnostics (Guelph, Ontario, Canada).

[2] = Clinical study: serum fatty acid profiles (EPA, ARA/EPA, Total Omega-3 Score); settings: 6 weeks; for Total Omega-3 Score: FIG. 4; for serum level of EPA / serum ratio of ARA/EPA (Inflammation Index): EPA 600 and 1800 mg/day, DHA 600 mg/day; for serum level of EPA: FIG. 1; for serum ratio of ARA/EPA (Inflammation Index): FIG. 3
Procedure: as §1

[3] = Clinical study: adverse effects and safety testing
Procedure: The goal of this study was to test the safety and efficacy of an EPA-enriched oil (as described in Examples 1-3; E.I. duPont de Nemours & Co., Inc. Applied Biosciences, Wilmington, Del.), to corroborate the safety of a novel oil rich in EPA in humans prior to this product being placed on the market as a dietary supplement. This oil was tested at doses of 600 mg and 1800 mg of EPA/day as compared to olive oil placebo and a comparator omega-3 oil providing 600 mg of DHA/day over a 6 week period in a parallel arm design in approximately 120 healthy adults studied in both the fasting and post-prandial state. Safety was monitored by assessing for adverse reactions, measuring vital signs and a variety of laboratory tests including a complete metabolic profile, thyroid function tests, complete blood count, and prothrombin time.
Standard chemistry tests were carried at all visits (screening, enrollment, and final study visit after an overnight fast by Quest Laboratories, Cambridge, Mass.): blood urea nitrogen, creatinine, calculated glomerular filtration rate, sodium, potassium, chloride, carbon dioxide, calcium, total protein, albumin, globulin, total bilirubin, alkaline phosphatase, liver transaminases AST and ALT, and glucose. A complete blood count was also performed at all visits and included: hemoglobin, hematocrit, red blood cell count, platelet count, white blood cell count and a white blood cell count differential. Additional tests included: prothrombin time, and measurement of thyroid function including T3, T4 and T3 uptake. […]
At visit 2, subjects were again asked to fast for 12 hours, and information about subject characteristics including all vital signs, recent illness or hospitalization, medication and supplement use, and diet information was again obtained. […] Compliance and adverse events were assessed by telephone at weeks 1 and 3 by telephone and at week 6 by questionnaire and capsule count. […] Compliance was calculated as a percentage of consumed capsule count/expected capsule count based on the number of days the subject was in the study. […]

Structure (SMILES): CCC=CCC=CCC=CCC=CCC=CC/C=C\CCC(=O)O [DHA, cis-4,7, 10, 13, 16, 19-docosahexaenoic acid, reference compound]
- HDL C, 6-Week Change (%) ([1]; DHA 600 mg (n = 28)): +1.2 ± 10.9%
- HDL C, Final ([1]; DHA 600 mg (n = 28)): 57.5 ± 22.7 mg/dL
- LDL C, Final ([1]; DHA 600 mg (n = 28)): 121.9 ± 32.9 mg/dL
- Total Cholesterol, 6-Week Change (%) ([1]; DHA 600 mg (n = 28)): +6.2 ± 10.8%
- Total Cholesterol, Final ([1]; DHA 600 mg (n = 28)): 211.1 ± 38.6 mg/dL
- Triglyceride, 6-Week Change (%) ([1]; DHA 600 mg (n = 28)): −9.5% and −9.5 ± 24.4%
- Triglyceride, Final ([1]; DHA 600 mg (n = 28)): 169.8 ± 89.2 mg/dL
- retroconversion of DHA to EPA [2]: no indication
- Total Omega-3 Score [2]: increased
- serum level of EPA [2]: not
- serum ratio of ARA/EPA (Inflammation Index) ([2]; listed as DHA-rich oil): no such effect
- fishy odor with belching occasionally experienced (share of subjects) ([3]; DHA 600 mg group): 39%

Structure (SMILES): CCC=CCC=CCC=CCC=CC/C=C\CCCC(=O)O [EPA, cis-5,8, 11, 14, 17-eicosapentaenoic acid]
- HDL C, 6-Week Change (%) ([1]; EPA 600 mg (n = 27)): +4.8 ± 20.7%
- HDL C, Final ([1]; EPA 600 mg (n = 27)): 53.1 ± 16.4 mg/dL
- LDL C, 6-Week Change (%) ([1]; EPA 600 mg (n = 27)): −1.4 ± 12.9%
- LDL C, Final ([1]; EPA 600 mg (n = 27)): 108.2 ± 32.2 mg/dL
- Total Cholesterol, 6-Week Change (%) ([1]; EPA 600 mg (n = 27)): −0.3 ± 8.6%
- Total Cholesterol, Final ([1]; EPA 600 mg (n = 27)): 193.3 ± 44.7 mg/dL
- Triglyceride, 6-Week Change (%) ([1]; EPA 600 mg (n = 27)): −3.1 ± 36.9%
- Triglyceride, Final ([1]; EPA 600 mg (n = 27)): 184.9 ± 98.5 mg/dL
- HDL C, 6-Week Change (%) ([1]; EPA 1800 mg (n = 29)): +3.4 ± 11.5%
- HDL C, Final ([1]; EPA 1800 mg (n = 29)): 55.3 ± 15.3 mg/dL
- LDL C, 6-Week Change (%) ([1]; EPA 1800 mg (n = 29)): −2.7 ± 13.6%
- LDL C, Final ([1]; EPA 1800 mg (n = 29)): 111.5 ± 25.2 mg/dL
- Total Cholesterol, 6-Week Change (%) ([1]; EPA 1800 mg (n = 29)): −1.4 ± 9.9%
- Total Cholesterol, Final ([1]; EPA 1800 mg (n = 29)): 197.3 ± 33.8 mg/dL
- Triglyceride, 6-Week Change (%) ([1]; EPA 1800 mg (n = 29)): −3.8 ± 40.2%
- Triglyceride, Final ([1]; EPA 1800 mg (n = 29)): 193.5 ± 184.2 mg/dL
- metabolic conversion of EPA to DHA [2]: no indication
- Total Omega-3 Score [2]: increased
- serum level of EPA [2]: significantly raised
- serum ratio of ARA/EPA (Inflammation Index) ([2]; listed as EPA substantially free of DHA): significantly decreased
- serum ratio of ARA/EPA (Inflammation Index) ([2]; listed as EPA-rich oil): dose-related decrease; also recorded: significantly decreased
- fishy odor with belching occasionally experienced (share of subjects) ([3]; EPA 600 mg group): 15%
- fishy odor with belching occasionally experienced (share of subjects) ([3]; EPA 1800 mg group): 28%
